According to ChEMBL document CHEMBL5727940, “Substituted piperazines as selective HDAC1,2 inhibitors” (2020):

Molecular target: hERG (KCNH2) (Homo sapiens, UniProt Q12809)
Assay: hERG inhibition assays: For hERG inhibition assays, the cells used were HEK293 cells stably transfected with hERG (cell line obtained from Cytocentrics Inc. 3463 Magic Drive San Antonio, Tex. 78229). Composition of External Solution: NaCl, 137 mM; KCl, 4 mM; MgCl2, 1.0 mM; CaCl2, 1.8 mM; HEPES 10 mM; Dextrose 11 mM; Adjusted to a pH of 7.4 with NaOH. Composition of Internal Solution: KCl, 130.0 mM
Settings: pH 7.4

Sequence of hERG (KCNH2) (Q12809 whole entry): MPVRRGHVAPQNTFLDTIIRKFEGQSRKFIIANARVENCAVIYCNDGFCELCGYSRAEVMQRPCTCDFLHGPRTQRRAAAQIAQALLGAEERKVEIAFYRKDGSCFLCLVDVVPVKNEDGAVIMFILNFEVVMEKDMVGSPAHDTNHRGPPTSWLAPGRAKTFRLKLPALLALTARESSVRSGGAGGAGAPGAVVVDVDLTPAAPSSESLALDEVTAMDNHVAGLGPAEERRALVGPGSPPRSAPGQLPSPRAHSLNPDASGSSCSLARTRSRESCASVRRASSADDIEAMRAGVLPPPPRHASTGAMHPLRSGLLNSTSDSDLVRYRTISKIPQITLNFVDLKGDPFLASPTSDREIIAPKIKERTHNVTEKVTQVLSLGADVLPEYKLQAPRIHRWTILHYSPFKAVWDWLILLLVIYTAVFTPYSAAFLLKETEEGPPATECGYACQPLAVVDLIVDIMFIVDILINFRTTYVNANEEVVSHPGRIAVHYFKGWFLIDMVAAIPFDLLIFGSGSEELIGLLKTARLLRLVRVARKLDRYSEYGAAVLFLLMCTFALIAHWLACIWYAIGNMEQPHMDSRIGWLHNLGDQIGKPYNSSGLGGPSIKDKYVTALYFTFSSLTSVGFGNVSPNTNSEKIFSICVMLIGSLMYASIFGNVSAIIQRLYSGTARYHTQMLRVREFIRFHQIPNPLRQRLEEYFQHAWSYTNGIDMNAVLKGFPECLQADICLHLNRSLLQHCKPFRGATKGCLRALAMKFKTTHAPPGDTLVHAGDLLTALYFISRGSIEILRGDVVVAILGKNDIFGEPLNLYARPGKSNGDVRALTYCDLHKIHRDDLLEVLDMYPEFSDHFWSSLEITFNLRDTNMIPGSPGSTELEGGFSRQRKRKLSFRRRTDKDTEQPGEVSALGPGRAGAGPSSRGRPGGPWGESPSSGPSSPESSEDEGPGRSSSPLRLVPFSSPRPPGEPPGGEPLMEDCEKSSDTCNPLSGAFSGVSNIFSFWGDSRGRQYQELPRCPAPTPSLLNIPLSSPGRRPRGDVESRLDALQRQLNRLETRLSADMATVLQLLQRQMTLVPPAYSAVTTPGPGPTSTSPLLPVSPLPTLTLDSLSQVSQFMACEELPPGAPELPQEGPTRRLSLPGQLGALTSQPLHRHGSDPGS

## Nc1ccc(-c2cccs2)cc1NC(=O)c1ncc(N2CCNCC2)s1
  IC50: 3.6 µM
